{
  "source": "paper PMC6452685",
  "about": "“Lysyl-tRNA synthetase as a drug target in malaria and cryptosporidiosis” (Proceedings of the National Academy of Sciences of the …, 2019)",
  "tested_on": "P. vivax liver schizonts/hypnozoites",
  "assay": "P. vivax liver schizonts/hypnozoites (prophylactic mode)",
  "type": "cell-based",
  "conditions": "Plasmodium vivax",
  "method": "Thi s i s bas ed on met hods prev i ous l y report ed (12 ). In bri ef, HepG 2-A1 6-CD81EGFP cel l s were cul tured at 3 7 °C i n 5% C O2 in DMEM me dia. For both P. berghei-Luc and HepG2 cytotoxi ci ty assays, 3x 10**3 of the HepG2-A16-CD81EGFP20 cells in 5 µl of assay medi um (DMEM wi thout Phenol Red (Li fe Techn ol ogi es, CA), 5% FBS, and 5x Pen Stre p Gl utami ne (Li fe Techn ol ogi es, CA)) at concentrati o n 6x 10**5 cel l s /ml were s eeded i n white s oli d bottom 153 6-well pl at es (cus t om G NF mol d ref# 7891 73-F, Grei ner Bi o-One), 2 0-26 h prior to sporozoites infection. […]\npri or t o i nfect i on 5 0 nl of comp ounds i n 1:3 s eri al di l ut i ons in DMSO (0. 5% fi nal DMSO concentrati on per w el l ) w ere t rans ferred w i t h an Acous ti c Trans fer Sy s t em (ATS) (Bi os ero) t o the cells. Atovaquone (5µ M) and pu romy ci n (1 0 µM) at a single concentration were used as pos i t i v e cont rol s for the Pbluc and He pG 2tox , res pecti v el y . 0. 5% DMSO was us ed as neg ati v e control for both as s ay s . […]\n[…] Immediately after addition of the luminescence reagent, the luminescence was measured by the Env i s i on M ul t il abel Reader (Perk i nEl mer). […]\nThi s is a modification of the previously reported method (13). […]",
  "note": "Read-outs that look alike come from different tables or passages of the source.",
  "data": [
    {"compound": "O=C(NCC1(O)CCC(F)(F)CC1)c1cc(=O)c2cc(F)ccc2o1", "note": "[Compound 5]", "values": [
      {"measurement": "EC50", "setting": "hypnozoites, read-out: P. vivax hypnozoites EC50 (prophylactic mode)", "value": "> 10000", "unit": "nM"},
      {"measurement": "EC50", "setting": "liver schizonts, read-out: P. vivax liver schizonts EC50 (prophylactic mode)", "value": 950, "unit": "nM"}
    ]}
  ]
}
